From US12053533B2, “Fluorescent probe for cyclooxygenase-2” (The Board of Trustees of the University of Illinois, priority 2020, dated 2024)
“Also recorded” adds a separate entry of the source.

Key:
[1] = tested on: COX-2 activity in HEK 293T cells over-expressing human COX-2; assay: Confocal live-cell imaging of human COX-2 transfected HEK 293T cells; type: cell-based; conditions: CoxFluor 10 μM
Protocol: Prior to plating onto 4-well chambered cover glasses, the surface exposed substrate was coated with R&D Systems™ Cultrex Poly-L-Lysine (Fisher Scientific) according to the manufacturers protocol (allowed to dry>3 h). […] Transfections was performed using Lipofectamine 3000 (Thermo Fisher Scientific) according to the manufacturer's protocol. […] Media was removed from each well and replaced with 500 μL Opti-MEM™ Reduced Serum Media followed by the addition of 20 μL transfection master mix.
Transfections were performed using the Lipofectamine 3000 reagent according to the aforementioned protocol. Control wells were treated the same as the transfected wells without the addition of the transfection master mix. […] Each well was imaged using a Zeiss LSM 700 confocal microscope (n=3 technical replicates; n=4 biological replicates). For GSH knockdown experiments, the initial media change was performed with 1 mM NEM (0.1% DMSO final concentration) in serum-free DMEM media and the cells were allowed to incubate for 30 minutes before proceeding to the staining with CoxFluor. […] All images were processed using identical parameters and false colored (LUT: jet.lut) in ImageJ.

[2] = molecular target: T1, COX-1 isolated from bovine vesicles (Bos taurus, UniProt O62664); assay: Isoform selectivity: CoxFluor incubated with COX-1; type: biochemical; conditions: even in the presence of 10-fold excess enzyme activity
T1 construct: COX-1 isolated from bovine vesicles; from tissue; host or cells: bovine vesicles
T1 sequence (O62664 25-600): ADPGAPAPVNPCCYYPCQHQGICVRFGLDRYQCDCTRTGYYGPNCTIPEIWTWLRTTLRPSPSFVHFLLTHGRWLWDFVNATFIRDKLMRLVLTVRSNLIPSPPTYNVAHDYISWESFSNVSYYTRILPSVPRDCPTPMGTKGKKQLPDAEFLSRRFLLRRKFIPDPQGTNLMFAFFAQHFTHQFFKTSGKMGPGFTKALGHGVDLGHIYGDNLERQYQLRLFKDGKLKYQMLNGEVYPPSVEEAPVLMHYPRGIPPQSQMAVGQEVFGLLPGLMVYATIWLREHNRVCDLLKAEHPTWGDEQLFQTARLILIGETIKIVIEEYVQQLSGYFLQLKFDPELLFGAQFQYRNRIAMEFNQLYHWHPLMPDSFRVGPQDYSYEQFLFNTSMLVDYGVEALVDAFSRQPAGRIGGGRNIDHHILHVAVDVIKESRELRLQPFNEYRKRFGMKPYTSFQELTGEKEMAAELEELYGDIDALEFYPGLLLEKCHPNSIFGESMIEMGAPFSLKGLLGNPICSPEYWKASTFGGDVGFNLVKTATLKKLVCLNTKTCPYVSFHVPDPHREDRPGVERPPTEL
Protocol: Enzyme Selectivity. Enzyme activity was defined as the amount substrate (μmol) consumed during one minute by one milligram of enzyme in 100 mM Tris-HCl at pH 8.0 under saturating conditions. Enzyme concentrations were measured using the BCA assay (Thermo Fisher Scientific) according to the published protocol with bovine serum albumin for the standard curve. […] The oxygen electrode was calibrated using 1% sodium sulfite for 0% oxygen and atmosphere equilibrated 100 mM Tris-HCl at pH 8.0 for 100% oxygen. The reaction was monitored at 37° C. in a glass chamber with a total reaction volume of 1 mL. […] When measured, all enzyme activities were confirmed to be under saturating conditions and within the first 20% of the reaction. The selectivity of CoxFluor (10 μM) was monitored after incubation with either 0.101 U COX-2 or 1.01 U of the other enzymes, unless noted otherwise above, in 100 mM Tris-HCl buffer at pH 8.0 using the plate reader with excitation at 540 nm and emission at 590 nm. Total reaction volume was maintained at 95 μL with a final DMSO concentration of 1.26% (v/v).

COX-2 = molecular target: T2, COX-2 (Homo sapiens, UniProt P35354); assay: COX-2 fluorescence assay with CoxFluor (fluorimeter / plate reader); type: biochemical; set-up: made in house
T2 sequence (P35354 18-604): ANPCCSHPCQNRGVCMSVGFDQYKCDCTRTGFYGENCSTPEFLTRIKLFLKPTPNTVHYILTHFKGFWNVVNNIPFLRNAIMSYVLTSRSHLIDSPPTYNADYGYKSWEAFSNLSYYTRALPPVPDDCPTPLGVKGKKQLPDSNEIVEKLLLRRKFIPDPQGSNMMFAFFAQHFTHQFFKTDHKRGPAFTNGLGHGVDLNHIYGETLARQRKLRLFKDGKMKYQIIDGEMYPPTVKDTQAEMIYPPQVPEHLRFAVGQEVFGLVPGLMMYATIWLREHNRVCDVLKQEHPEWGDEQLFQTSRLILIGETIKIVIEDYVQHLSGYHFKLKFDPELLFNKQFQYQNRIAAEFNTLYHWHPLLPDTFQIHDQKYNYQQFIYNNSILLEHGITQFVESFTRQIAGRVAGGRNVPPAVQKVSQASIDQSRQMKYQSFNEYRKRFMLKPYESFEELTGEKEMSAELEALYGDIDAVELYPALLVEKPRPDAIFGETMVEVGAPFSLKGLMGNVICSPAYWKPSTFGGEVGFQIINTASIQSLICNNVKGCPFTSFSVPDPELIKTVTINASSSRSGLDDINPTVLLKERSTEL
Protocol: Fluorimeter Fluorescence Assay. The fluorescence assays were performed in microquartz cuvettes or submicroquartz cuvettes with a maximum volume of 600 μL. Reactions were monitored at room temperature using 540 nm excitation and emission was collected from 550-700 nm with a slit width of 1.25 mm. Total volumes of the reaction mixtures were maintained at 570 μL. […] Experiments in the presence of reduced GSH were conducted according to the same procedure, but GSH (30 μL, 19 mM in 100 mM Tris-HCl, pH 8.0) was added before the addition of CoxFluor for a final concentration of 1 mM. Assays performed in submicroquartz cuvettes were performed maintaining the same ratios, but with a final volume of 142.5 μL.
Plate Reader Fluorescence Assay. The fluorescence assays were performed at room temperature using 540 nm excitation and 590 nm emission. Total volume of the reaction mixture was maintained at 190 μL. […] Inhibition assays were performed according to the same procedure, but COX-2 was preincubated with hemin and inhibitor for 0.5 h at 0° C. before initiation with CoxFluor. Relative fluorescence enhancement is calculated by comparing to a buffer control with 10 μM CoxFluor.

[3] = tested on: COX-2 activity in RAW 264.7 macrophage lysates; assay: RAW 264.7 macrophage lysate COX-2 activity assay; type: cell-based, mouse; conditions: NEM 1 mM, CoxFluor readout

For CCCCC/C=C\C/C=C\C/C=C\C/C=C\CCCC(=O)N1c2ccc(O)cc2Oc2cc(O)ccc21 [CoxFluor], the “fluorescence increase for transfected cells compared to the control” value ([1]; 3 h, N-ethylmaleimide glutathione depletion) was 1.2 fold, the “fluorescence enhancement for the control relative to indomethacin-treated transfected cells” value ([1]; 4.5 h) was 1.2 fold and the “fluorescent enhancement with COX-1” value [2] was “not observed; also recorded: No fluorescent enhancement was observed”. The “measured rate for turnover relative to natural substrate cyclooxygenase activity” value (COX-2) was at most 100 fold, the fluorescent turn-on response (COX-2; CoxFluor 10 μM, COX-2 250 nM, hemin 1 μM, 4 h, room temperature, 100 mM Tris HCl pH 8.0) was 41 fold and the “COX-2-specific fluorescence enhancement in the presence of glutathione” value (COX-2; glutathione 1 mM, COX-2 250 nM) was “maintained significant COX-2-specific fluorescence enhancements”. The “maximum increase in COX-2 activity in lysates” value ([3]; 19 hr LPS activation) was 17.6 fold and the “increase in COX-2 activity in lysates” value ([3]; within the first 4 hr of LPS activation) was 2.4 fold.
